Measurements published in patent US9656971B2, “COMT inhibitors” (Hoffmann-La Roche Inc., priority 2012, dated 2017).

target: T1, Rec. human COMT (Homo sapiens, UniProt P21964); assay: COMT-Fluorescence Assay; format: biochemical; settings: COMT-fluorescence assay, rec. human COMT 25 nM, 4-Nitrocatechol-Alexa488 200 nM, SAM 500 nM; read-out: IC50
T1 sequence (P21964 1-271): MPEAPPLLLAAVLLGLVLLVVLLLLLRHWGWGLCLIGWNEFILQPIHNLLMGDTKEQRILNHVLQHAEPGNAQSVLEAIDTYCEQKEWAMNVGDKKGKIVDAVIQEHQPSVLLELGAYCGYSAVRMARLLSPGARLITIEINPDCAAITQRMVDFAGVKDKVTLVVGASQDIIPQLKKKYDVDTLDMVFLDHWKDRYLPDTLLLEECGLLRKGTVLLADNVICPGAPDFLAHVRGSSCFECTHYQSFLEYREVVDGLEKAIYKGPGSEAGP
Description: This intramolecular interaction is disturbed if the 4-Nitrocatechol is methylated. […] This increase of fluorescence intensity can be followed in a kinetic measurement. The slope in the linear range of the kinetic is calculated. An inhibitor compound decreases the slope.
Signal [rfu/min]=(rfu(end-point)−rfu(startpoint))/incubation_time_#2

Row | SMILES | IC50 [nM]
1 | Cn1ccnc1-c1cc(O)c2nc[nH]c(=O)c2c1 [Example 73, 8-Hydroxy-6-(1-methyl-1H-imidazol-2-yl)quinazolin-4(3H)-one] | 40
2 | O=C(c1cccnc1)c1cc(O)c2nc[nH]c(=O)c2c1 [Example 74, 8-Hydroxy-6-nicotinoylquinazolin-4(3H)-one] | 250
3 | Cn1cnc(-c2cc(O)c3nc[nH]c(=O)c3c2)c1 [Example 75, 8-Hydroxy-6-(1-methyl-1H-imidazol-4-yl)quinazolin-4(3H)-one] | 510
4 | Cc1onc(-c2ccccc2)c1-c1cc(O)c2nc[nH]c(=O)c2c1 [Example 76, 8-Hydroxy-6-(5-methyl-3-phenylisoxazol-4-yl)quinazolin-4(3H)-one] | 4600
5 | CN(C)S(=O)(=O)n1cnc(-c2cc(O)c3nc[nH]c(=O)c3c2)c1 [Example 77, 4-(8-Hydroxy-4-oxo-3,4-dihydroquinazolin-6-yl)-N,N-dimethyl-1H-imidazole-1-sulfonamide] | 50
6 | Cc1noc(C)c1-c1cc(O)c2nc[nH]c(=O)c2c1 [Example 78, 6-(3,5-Dimethylisoxazol-4-yl)-8-hydroxyquinazolin-4(3H)-one] | 320
7 | Cn1cncc1-c1cc(O)c2nc[nH]c(=O)c2c1 [Example 79, 8-Hydroxy-6-(1-methyl-1H-imidazol-5-yl)quinazolin-4(3H)-one] | 150
8 | CCOC(=O)c1[nH]c(-c2cc(O)c3nc[nH]c(=O)c3c2)nc1C [Example 80, Ethyl 2-(8-hydroxy-4-oxo-3,4-dihydroquinazolin-6-yl)-4-methyl-1H-imidazole-5-carboxylate] | 90
9 | COC(=O)c1cc(C)c(-c2cc(O)c3nc[nH]c(=O)c3c2)s1 [Example 81, Methyl 5-(8-hydroxy-4-oxo-3,4-dihydroquinazolin-6-yl)-4-methylthiophene-2-carboxylate] | 10
10 | Cn1cc(-c2cc(O)c3nc[nH]c(=O)c3c2)c(C(F)(F)F)n1 [Example 82, 8-Hydroxy-6-(1-methyl-3-(trifluoromethyl)-1H-pyrazol-4-yl)quinazolin-4(3H)-one] | 40
11 | Cc1nnc(-c2cc(O)c3nc[nH]c(=O)c3c2)s1 [Example 83, 8-Hydroxy-6-(5-methyl-1,3,4-thiadiazol-2-yl)quinazolin-4(3H)-one] | 60
12 | COC(=O)c1csc(-c2cc(O)c3nc[nH]c(=O)c3c2)n1 [Example 84, Methyl 2-(8-hydroxy-4-oxo-3,4-dihydroquinazolin-6-yl)thiazole-4-carboxylate] | 110
13 | Cc1nc(-c2cc(O)c3nc[nH]c(=O)c3c2)cs1 [Example 85, 8-Hydroxy-6-(2-methylthiazol-4-yl)quinazolin-4(3H)-one] | 170
14 | O=c1[nH]cnc2c(O)cc(-c3cnc4ccccn34)cc12 [Example 86, 8-Hydroxy-6-(imidazo[1,2-a]pyridin-3-yl)quinazolin-4(3H)-one] | 30
15 | Cc1ncc(-c2cc(O)c3nc[nH]c(=O)c3c2)n1C [Example 87, 6-(1,2-Dimethyl-1H-imidazol-5-yl)-8-hydroxyquinazolin-4(3H)-one] | 230
16 | COC(=O)c1nn(C)cc1-c1cc(O)c2nc[nH]c(=O)c2c1 [Example 88, Methyl 4-(8-hydroxy-4-oxo-3,4-dihydroquinazolin-6-yl)-1-methyl-1H-pyrazole-3-carboxylate] | 120
17 | O=c1[nH]cnc2c(O)cc(-c3ccc(-c4ccccn4)s3)cc12 [Example 89, 8-Hydroxy-6-(5-(pyridin-2-yl)thiophen-2-yl)quinazolin-4(3H)-one] | 20
18 | O=c1[nH]cnc2c(O)cc(-c3cncs3)cc12 [Example 90, 8-Hydroxy-6-(thiazol-5-yl)quinazolin-4(3H)-one] | 20
19 | O=c1[nH]cnc2c(O)cc(-c3cscn3)cc12 [Example 91, 8-Hydroxy-6-(thiazol-4-yl)quinazolin-4(3H)-one] | 100
20 | O=c1[nH]cnc2c(O)cc(-c3cnsc3)cc12 [Example 92, 8-Hydroxy-6-(isothiazol-4-yl)quinazolin-4(3H)-one] | 60
21 | O=C(c1ccncc1)c1cc(O)c2nc[nH]c(=O)c2c1 [Example 93, 8-Hydroxy-6-isonicotinoylquinazolin-4(3H)-one] | 160

Row | SMILES | IC50 [nM]
22 | Cc1ccc(C(=O)c2cc(O)c3nc[nH]c(=O)c3c2)s1 [Example 94, 8-Hydroxy-6-(5-methylthiophene-2-carbonyl)quinazolin-4(3H)-one] | 90
23 | Cc1c(-c2cc(O)c3nc[nH]c(=O)c3c2)c(C(F)(F)F)nn1C [Example 95, 6-(1,5-Dimethyl-3-(trifluoromethyl)-1H-pyrazol-4-yl)-8-hydroxyquinazolin-4(3H)-one] | 970
24 | Cn1ncc2cc(-c3cc(O)c4nc[nH]c(=O)c4c3)ccc21 [Example 96, 8-Hydroxy-6-(1-methyl-1H-indazol-5-yl)quinazolin-4(3H)-one] | 30
25 | Cc1cc(C(=O)N2CCCCC2)sc1-c1cc(O)c2nc[nH]c(=O)c2c1 [Example 97, 8-Hydroxy-6-(3-methyl-5-(piperidine-1-carbonyl)thiophen-2-yl)quinazolin-4(3H)-one] | 10
26 | O=c1[nH]cnc2c(O)cc(-c3ccccc3Cc3ccccc3)cc12 [Example 98, 6-(2-Benzylphenyl)-8-hydroxyquinazolin-4(3H)-one] | 40
27 | O=C(c1ccccc1)c1ccccc1-c1cc(O)c2nc[nH]c(=O)c2c1 [Example 99, 6-(2-Benzoylphenyl)-8-hydroxyquinazolin-4(3H)-one] | 100
28 | O=c1[nH]cnc2c(O)cc(-c3ccc(S(F)(F)(F)(F)F)cc3)cc12 [Example 100, 6-(4-Pentafluorosulfanylphenyl)-8-hydroxyquinazolin-4(3H)-one] | 50
29 | O=c1[nH]cnc2c(O)cc(-c3ccc(F)cc3)c(Cl)c12 [Example 101, 5-Chloro-6-(4-fluorophenyl)-8-hydroxyquinazolin-4(3H)-one] | 10
30 | O=c1[nH]cnc2c(O)cc(-c3ccc(F)cc3)c(-c3ccc(F)cc3)c12 [Example 102, 5,6-Bis(4-fluorophenyl)-8-hydroxyquinazolin-4(3H)-one] | 1
31 | Cc1cc(C(=O)N2CCN(C)CC2)sc1-c1cc(O)c2nc[nH]c(=O)c2c1 [Example 103, 8-Hydroxy-6-[3-methyl-5-(4-methyl-piperazine-1-carbonyl)-thiophen-2-yl]-3H-quinazolin-4-one] | 10
32 | COCc1nc(NC(=O)C(C)(C)C)ccc1-c1cc(O)c2nc[nH]c(=O)c2c1 [Example 104, N-(5-(8-Hydroxy-4-oxo-3,4-dihydroquinazolin-6-yl)-6-(methoxymethyl)pyridin-2-yl)pivalamide] | 10
33 | Cc1cc(-c2c(Br)cc(O)c3nc[nH]c(=O)c23)ccn1 [Example 105, 6-Bromo-8-hydroxy-5-(2-methylpyridin-4-yl)quinazolin-4(3H)-one] | 70
34 | COCc1cc(C(=O)N(CCN(C(C)C)C(C)C)C(C)C)ccc1-c1cc(O)c2nc[nH]c(=O)c2c1 [Example 106, N-(2-(Diisopropylamino)ethyl)-4-(8-hydroxy-4-oxo-3,4-dihydroquinazolin-6-yl)-N-isopropyl-3-(methoxymethyl)benzamide 2,2,2-trifluoroacetate] | 20
35 | COCc1cc(CN2CCN(C(C)C)CC2)ccc1-c1cc(O)c2nc[nH]c(=O)c2c1 [Example 107, 8-Hydroxy-6-(4-((4-isopropylpiperazin-1-yl)methyl)-2-(methoxymethyl)phenyl)quinazolin-4(3H)-one tetrakis(2,2,2-trifluoroacetate)] | 20
36 | CC(C)N1CCc2c(cccc2-c2cc(O)c3nc[nH]c(=O)c3c2)C1 [Example 108, 8-Hydroxy-6-(2-isopropyl-1,2,3,4-tetrahydroisoquinolin-5-yl)quinazolin-4(3H)-one 2,2,2-trifluoroacetate] | 80
37 | COCc1cc(COC(=O)N2CCN(C(C)C)CC2)ccc1-c1cc(O)c2nc[nH]c(=O)c2c1 [Example 109, 4-(8-Hydroxy-4-oxo-3,4-dihydroquinazolin-6-yl)-3-(methoxymethyl)benzyl 4-isopropylpiperazine-1-carboxylate bis(2,2,2-trifluoroacetate)] | 20
38 | COCc1ncccc1-c1cc(O)c2nc[nH]c(=O)c2c1 [Example 110, 8-Hydroxy-6-(2-(methoxymethyl)pyridin-3-yl)quinazolin-4(3H)-one bis(2,2,2-trifluoroacetate)] | 20
39 | CN1CCN(S(=O)(=O)c2cccc(-c3cc(O)c4nc[nH]c(=O)c4c3)c2)CC1 [Example 111, 8-Hydroxy-6-[3-(4-methyl-piperazine-1-sulfonyl)-phenyl]-3#H!-quinazolin-4-one; compound with trifluoro-acetic acid] | 20
40 | CC(C)(O)c1ccccc1-c1cc(O)c2nc[nH]c(=O)c2c1 [Example 113, 8-Hydroxy-6-(2-(2-hydroxypropan-2-yl)phenyl)quinazolin-4(3H)-one] | 3600
41 | CSCc1ccccc1-c1cc(O)c2nc[nH]c(=O)c2c1 [Example 114] | 40

same assay, conditions: IC50, COMT-fluorescence assay, rec. human COMT 25 nM, 4-Nitrocatechol-Alexa488 200 nM, SAM 500 nM

Row | SMILES | IC50 [nM]
42 | CC(=O)c1ccccc1-c1cc(O)c2nc[nH]c(=O)c2c1 [Example 112, 6-(2-Acetylphenyl)-8-hydroxyquinazolin-4(3H)-one] | 170
43 | CS(=O)(=O)Cc1ccccc1-c1cc(O)c2nc[nH]c(=O)c2c1 [Example 115, 8-Hydroxy-6-(2-(methylsulfonylmethyl)phenyl)quinazolin-4(3H)-one 2,2,2-trifluoroacetate] | 50
